Experimental findings from patent publication US8367328B2, “Method for synthesizing DNA” (Takara Bio Inc., priority 1998, dated 2013) are described below.

The assay concerns the target T1, Pfu DNA Polymerase II (Pyrococcus furiosus, UniProt P81409+P81412).
T1 construct: made in house; host or cells: Escherichia coli JM109/pFU1001 (FERM BP-5579)
T1 sequence (P81409 1-1263): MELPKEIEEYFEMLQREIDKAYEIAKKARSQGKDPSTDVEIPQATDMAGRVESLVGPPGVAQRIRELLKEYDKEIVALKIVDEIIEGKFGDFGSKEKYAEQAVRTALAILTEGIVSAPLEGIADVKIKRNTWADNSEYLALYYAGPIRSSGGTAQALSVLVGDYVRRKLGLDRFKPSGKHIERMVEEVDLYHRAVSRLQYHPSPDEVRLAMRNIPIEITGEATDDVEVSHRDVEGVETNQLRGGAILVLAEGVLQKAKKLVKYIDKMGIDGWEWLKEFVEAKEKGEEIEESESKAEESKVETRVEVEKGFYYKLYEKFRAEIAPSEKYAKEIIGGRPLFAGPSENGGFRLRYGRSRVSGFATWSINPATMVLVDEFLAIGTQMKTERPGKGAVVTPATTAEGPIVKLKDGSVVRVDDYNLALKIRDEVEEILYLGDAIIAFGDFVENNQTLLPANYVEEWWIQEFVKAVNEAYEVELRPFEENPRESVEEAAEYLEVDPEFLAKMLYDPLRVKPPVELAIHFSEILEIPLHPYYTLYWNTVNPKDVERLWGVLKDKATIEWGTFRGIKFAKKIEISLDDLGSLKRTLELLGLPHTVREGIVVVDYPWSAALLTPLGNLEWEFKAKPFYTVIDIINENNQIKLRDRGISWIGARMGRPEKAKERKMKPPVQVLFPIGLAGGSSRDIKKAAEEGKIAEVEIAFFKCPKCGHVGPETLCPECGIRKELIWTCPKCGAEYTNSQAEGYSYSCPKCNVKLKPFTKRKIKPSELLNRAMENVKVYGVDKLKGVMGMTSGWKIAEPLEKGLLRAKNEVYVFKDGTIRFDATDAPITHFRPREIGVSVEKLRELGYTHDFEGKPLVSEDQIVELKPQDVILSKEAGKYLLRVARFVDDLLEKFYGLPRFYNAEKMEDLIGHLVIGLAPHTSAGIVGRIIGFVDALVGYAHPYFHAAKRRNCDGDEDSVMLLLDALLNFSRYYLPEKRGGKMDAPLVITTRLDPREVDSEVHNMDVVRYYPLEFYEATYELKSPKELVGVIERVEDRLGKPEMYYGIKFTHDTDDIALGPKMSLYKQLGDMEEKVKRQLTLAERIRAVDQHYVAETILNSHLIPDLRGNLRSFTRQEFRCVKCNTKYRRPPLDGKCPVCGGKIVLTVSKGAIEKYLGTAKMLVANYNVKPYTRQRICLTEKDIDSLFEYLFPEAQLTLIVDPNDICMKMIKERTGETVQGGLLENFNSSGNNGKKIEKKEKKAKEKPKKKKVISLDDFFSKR
T1 sequence (P81412 1-613): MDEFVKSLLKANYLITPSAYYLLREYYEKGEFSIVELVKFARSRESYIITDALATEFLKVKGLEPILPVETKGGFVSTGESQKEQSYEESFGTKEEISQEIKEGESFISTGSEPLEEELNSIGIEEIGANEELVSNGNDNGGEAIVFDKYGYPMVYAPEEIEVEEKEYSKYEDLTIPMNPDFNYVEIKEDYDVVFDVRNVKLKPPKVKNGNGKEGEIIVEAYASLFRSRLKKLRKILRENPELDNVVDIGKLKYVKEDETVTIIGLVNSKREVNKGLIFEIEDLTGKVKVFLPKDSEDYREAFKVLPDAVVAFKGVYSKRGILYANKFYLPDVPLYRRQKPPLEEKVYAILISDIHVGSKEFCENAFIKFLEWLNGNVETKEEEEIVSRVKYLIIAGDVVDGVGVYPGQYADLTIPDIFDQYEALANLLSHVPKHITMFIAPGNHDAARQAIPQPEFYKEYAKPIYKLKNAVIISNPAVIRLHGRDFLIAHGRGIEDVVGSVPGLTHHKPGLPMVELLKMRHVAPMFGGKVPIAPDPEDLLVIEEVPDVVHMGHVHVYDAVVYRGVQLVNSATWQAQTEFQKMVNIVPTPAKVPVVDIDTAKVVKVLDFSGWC
Kind of assay: PCR with Pfu DNA Polymerase II in the presence of acidic substances (λDNA template). It counts as biochemical. The settings on record: 1 kb fragment, 500 pg λDNA, primers λ1/λ3, 30 cycles 98°C 5 s–66°C 15 s. The procedure: A reaction mixture comprising λDNA as a template, primers λ1 and λ3 as a primer pair, and Pfu DNA Polymerase II as DNA polymerase was prepared, and PCR was carried out. The composition of the reaction mixture is as follows.
10 mM Tris-hydrochloric acid (pH 9.2), 75 mM potassium chloride, 6 mM magnesium chloride, 0.4 mM each of dATP, dCTP, dGTP and dTTP, 0.01% BSA, 1.25 U of Pfu DNA Polymerase II, 500 pg of λDNA, and 5 pmol each of primers λ1 and λ3 (a final volume being 25 μl). […]
Using the sulfated-fucose-containing Polysaccharide-F obtained in Example 6 described above, dextran sulfate powder (manufactured by Onco), or sodium alginate (100 to 150 centipoises, manufactured by Wako Pure Chemicals), the effects of these acidic substances on the activity of Pfu DNA Polymerase II were examined. A reaction mixture comprising λDNA as a template, primers λ1 and λ2 as a primer pair, and Pfu DNA Polymerase II as DNA polymerase was prepared, and PCR was carried out. The composition of the reaction mixture is as follows.
10 mM Tris-hydrochloric acid, pH 9.2, 75 mM potassium chloride, 6 mM magnesium chloride, 0.4 mM each of dATP, dCTP, dGTP and dTTP, 0.01% BSA, 1.25 U of Pfu DNA Polymerase II, 100 pg of λDNA, and 5 pmol each of primers λ1 and λ2 (a final volume being 25 μl). Further, 10 ng of the sulfated-fucose-containing polysaccharide-F, 10 ng of dextran sulfate powder, or 1 μg of sodium alginate was respectively added to the above reaction mixture.
The reaction in 25 cycles was carried out for each of these reaction mixtures, wherein one cycle of reaction comprises a process consisting of 98° C., 5 seconds—66° C., 15 seconds. Thereafter, 5 μl of the resulting reaction mixture was subjected to electrophoresis on 1% agarose gel containing ethidium bromide in an amount of 0.00005%, whereby an amplified fragment was confirmed.
Further, studies were conducted on the effects of the sulfated-fucose-containing polysaccharide-F obtained in Example 6 described above, the sulfated-fucose-containing polysaccharide-U obtained in Example 7 described above, or sodium polyglutamate (manufactured by Sigma) as an acidic substance. A reaction mixture for PCR was prepared in the same manner as described above except for changing the amount of template λDNA to 500 pg and the primer pairs to primers λ1 and λ3. Five nanograms of the sulfated-fucose-containing polysaccharide-F, 5 ng, 10 ng, 20 ng or 30 ng each of the sulfated-fucose-containing polysaccharide-U, or 250 ng, 500 ng, 750 ng or 1000 ng each of sodium polyglutamate was respectively added to the above reaction mixture.
The reaction was carried out in 30 cycles, wherein one cycle of reaction comprises a process consisting of 98° C., 5 seconds—66° C., 15 seconds. After the termination of the reaction, 5 μl of the resulting reaction mixture was subjected to electrophoresis on 1% agarose gel containing ethidium bromide in an amount of 0.00005%, whereby an amplified fragment was confirmed.
Using the sulfated-fucose-containing polysaccharide-F obtained in Example 6 described above, the effects on the activity of Pfu DNA Polymerase II were examined. A reaction mixture comprising λDNA as a template, primers λ1 and λ2 as a primer pair, and Pfu DNA Polymerase II as DNA polymerase was prepared, and PCR was carried out. The composition of the reaction mixture is as follows.
10 mM Tris-hydrochloric acid, pH 9.2, 75 mM potassium chloride, 6 mM magnesium chloride, 0.4 mM each of dATP, dCTP, dGTP and dTTP, 0.01% BSA, 1.25 U of Pfu DNA Polymerase II, 500 pg of λDNA, and 5 pmol each of primers λ1 and λ2 (a final volume being 25 μl). Further, 10 ng of the sulfated-fucose-containing polysaccharide-F was respectively added to the above reaction mixture.
The reaction in 30 cycles was carried out for each of these reaction mixtures, wherein one cycle of reaction comprises a process consisting of 98° C., 5 seconds—66° C., 15 seconds. […]

As to sodium polyglutamate, the “Amplification Results” value (amount added 250 ng) is reported as “+ (Amplification being observed)”, the “Amplification Results” value (amount added 500 ng) is “+ (Amplification being observed)”, the “Amplification Results” value (amount added 750 ng) is “++ (Intensive amplification being observed)” and the “Amplification Results” value (amount added 1000 ng) is given as “+ (Amplification being observed)”.
